The LD50 is the dose expected to kill half of the subjects tested. As a reminder, the IC50 is the concentration at which inhibition is half-maximal.

Tested on in the first data set: not listed separately
The data set is described as follows: acute toxicity (LD50) in mouse by oral administration. The following applies: in vivo. The method, then:
For example, the acute toxicity (LD50) in mouse of 6-[(1S, 2R, 3R, 4R)-3-(4-bromophenylsulfonylaminomethyl)bicyclo[2.2.1]heptan-2-yl]-5Z-hexenoic acid (it is described as example 1(y) in specification of the U.S. Pat. No. 5,168,101.) was more than 300 mg/kg by oral administration.
For the compound `O=C(O)CCC/C=C\[C@@H]1[C@H]2CC[C@H](C2)[C@H]1CNS(=O)(=O)c1ccc(Br)cc1` [U.S. Pat. No. 5168101 1 (y), 6-[(1S, 2R, 3R, 4R)-3-(4-bromophenylsulfonylaminomethyl)bicyclo[2.2.1]heptan-2-yl]-5Z-hexenoic acid], the LD50 is greater than 300 mg/kg.

Another data set addresses prostaglandin E2 receptor. The data set can be described thus: inhibition of [^3 H]-PGE2 receptor binding in rat uterus membrane fraction. The following applies: Table I; 5 nM [^3 H]-PGE2, rat uterus crude membrane fraction, pH 6.0, 1 hour at room temperature; read-out: IC50, inhibitory effects of PGE2 receptor binding in rat. As to the method:
(i) The measurement of the inhibition of [^3 H]-PGE2 receptor binding
The standard assay mixture contained 5 nM [^3 H]-PGE2 (50 μl), test compounds (50 μl) and crude membrane fraction obtained from rat uterus (1.2 mg protein/ml, 100 μl) in a final volume of 200 μl (10 mM potassium phosphate pH 6.0, 0.1M NaCl (buffer A)). After incubation for 1 hour at room temperature, the reaction was stopped by the addition of 3 ml of ice-cold buffer A, after which the mixture was rapidly filtered through a Whatman GF/B glass filter. The radioactivity associated with the filter was measured in ACS II (Amarsham) by liquid scintillation counting. Percent inhibition of specific [^3 H]-PGE2 binding or IC50 value, the concentration required to compete with ^3 H-PGE2 receptor binding by 50% were calculated.
In the case of `O=C(O)CCC/C=C\[C@@H]1[C@H]2CC[C@H](C2)[C@H]1CNS(=O)(=O)c1ccc(Br)cc1` [U.S. Pat. No. 5168101 1 (y), 6-[(1S, 2R, 3R, 4R)-3-(4-bromophenylsulfonylaminomethyl)bicyclo[2.2.1]heptan-2-yl]-5Z-hexenoic acid], the IC50 amounted to 620 nM.
The same measure, in the same setting: in the case of `Cc1ccc(S(=O)(=O)N[C@H]2[C@H]3CC[C@H](C3)[C@@H]2C/C=C\CCCC(=O)O)cc1` [Example 4, 7-[(1R,2S,3S,4S)-3-tosylaminobicyclo[2.2.1]heptan-2-yl]-5Z-heptenoic acid] it was 3400 nM; in that of `O=C(O)CCC/C=C\C1CC2CCC1C(NS(=O)(=O)c1ccc(Br)cc1)C2` (centres unmarked) [U.S. Pat. No. 5168101 1 (a)], 770 nM.
On to `O=C(O)CCC/C=C\CC1CCCCC1NS(=O)(=O)c1ccc(Br)cc1` (centres unmarked) [5 (f), 7-[2-(4-bromophenylsulfonylamino)cyclohexyl]-5Z-heptenoic acid], for which the IC50 came out at 5000 nM.
Still for that read-out and setting: in the case of `Cc1ccc(S(=O)(=O)NCC2C3C=CC(C3)C2C=CCCCC(=O)O)cc1` (centres unmarked) [U.S. Pat. No. 5168101 1 (aa)] it was 2000 nM; in that of `O=C(O)CCC/C=C\CC1CCCCC1NS(=O)(=O)c1ccc(Br)cc1` (centres unmarked) [5 (e), 7-[2-(4-bromophenylsulfonylamino)cyclohexyl]-5Z-heptenoic acid], 60 nM.
`CC1(C)[C@H]2C[C@H](NS(=O)(=O)c3ccc(F)cc3)[C@@H](C/C=C\CCCC(=O)O)[C@@H]1C2` [3 (e), 7-[(1S,2S,3S,5R)-3-(4-fluorophenyl)sulfonylamino-6,6-imethylbicyclo[3.1.1]heptan-2-yl]-5Z-heptenoic]: the IC50 amounted to 2600 nM.
Consider `Cc1ccc(S(=O)(=O)NCC2C3CCC(C3)C2C=CCCCC(=O)O)cc1` (centres unmarked) [U.S. Pat. No. 5168101 1 (x)], for which the concentration for half-maximal inhibition (IC50) was 1600 nM.

Staying with this data set, now noted: Table II; 5 nM [^3 H]-PGE2, rat uterus crude membrane fraction, pH 6.0, 1 hour at room temperature; read-out: IC50, inhibitory effects of PGE2 receptor binding in rat.
Take `CC1(C)[C@H]2C[C@H](NS(=O)(=O)/C=C/c3ccccc3)[C@@H](C/C=C\CCCC(=O)O)[C@@H]1C2` [6 (12), 7-[(1S, 2S, 3S, 5R)-3-(2-phenylvinylsulfonylamino)-6,6-dimethylbicyclo[3.1.1]heptan-2-yl]-5Z-heptenoic acid]: the IC50 is less than 10 nM.
Take `CCCC/C=C/S(=O)(=O)N[C@H]1C[C@H]2C[C@@H]([C@@H]1C/C=C\CCCC(=O)O)C2(C)C` [6 (14)]: the IC50 came to 800 nM.
As to `O=C(O)CCC/C=C\C[C@H]1CCCC[C@@H]1NS(=O)(=O)/C=C/c1ccccc1` (relative stereo) [6 (19), 7-[(1R*, 2S*)-2-(2-phenylvinylsulfonylamino)cyclohexyl]-5Z-heptenoic], the IC50 worked out at 230 nM.
Regarding `CC1(C)[C@H]2C[C@H](NS(=O)(=O)/C=C/c3ccc(F)cc3)[C@@H](C/C=C\CCCC(=O)O)[C@@H]1C2` [6 (2), 7-[(1S, 2S, 3S, 5R)-3-[2-(4-fluorophenyl)vinylsulfonylamino]-6,6-dimethylbicyclo[3.1.1]heptan-2-yl]-5Z-heptenoic acid], the half-inhibitory concentration (IC50) stood at 3.6 nM.

The subject of the next data set is contraction of rat uterus induced by PGE2. The data set can be described thus: inhibitory effects of compounds on contraction of rat uterus induced by PGE2. The note with it: contraction induced by 0.3 μM PGE2; isolated pseudo pregnant rat uterus strips, 28° C.; compound concentration not given. On the set-up: species or system rat (Sprague Dawley). The method, then:
(ii) The inhibitory effects of compounds on contraction of rat uterus induced by PGE2
Pseudo pregnant rat uterus (Sprague Dawley, 200-300 g, induced by oestradiol […] s.c. 18-24 hours before experiment) was isolated and longitudinal strips of 1-1.5 cm were set up in Locke-Ringer solution containing low Ca^2+, aerated with mixed gas (oxygen 95%+carbon dioxide 5%) at 28° C.
For `CC1(C)[C@H]2C[C@H](NS(=O)(=O)/C=C/c3ccccc3)[C@@H](C/C=C\CCCC(=O)O)[C@@H]1C2` [6 (12), 7-[(1S, 2S, 3S, 5R)-3-(2-phenylvinylsulfonylamino)-6,6-dimethylbicyclo[3.1.1]heptan-2-yl]-5Z-heptenoic acid], the “inhibition of the contraction of rat uterus induced by PGE2” value is given as “completely inhibited”.

(Values after patent US5663417A, “Carbocyclic sulfonamides” (Ono Pharmaceutical Co., Ltd., priority 1993, dated 1997).)
